The text below walks through data of PMC12064818, “A general assay platform to study protein pharmacology using ligand-dependent structural dynamics” (Nature Communications, 2025).

The structures appear in SMILES notation. “And” between values parts separate entries of the source, which are not always exact repeats. Equal values may be shown once. Read-outs that look alike come from different tables or passages of the source.

The target in assay [1] is E. coli Lig-N-HiBiT (DNA ligase) (Escherichia coli, UniProt P15042). The note with it: for SDR assay data: 0.5 nM E. coli Lig-N-HiBiT; for SDR assay data / SDR response: Log [ATP]; for SDR response: replicates.
Assay [2] has as its target iPGM. The settings on record: surface plasmon resonance kinetics; cited from earlier work.
Assay [3] addresses FLuc-N-HiBiT (firefly luciferase) (Photinus pyralis, UniProt P08659, form not given/L550V). Description: Firefly luciferase (FLuc) enzymatic luminescence assay, FLuc-N-HiBiT. The note with it: for Functional Enzymatic Assay: 10 nM FLuc-N-HiBiT, replicates; for Functional Enzymatic Assay / 10 nM FLuc-N-HiBiT Enz, Mean: Log [PTC124]. The format is biochemical. The procedure:
The enzyme activity of FLuc-N-HiBiT, FLuc-C-HiBiT, and FLuc-C-NLuc was measured similar to P. pyralis firefly luciferase (FLuc) as previously described. […] Compounds and controls were added to each plate as described in Supplementary Data 8 with a Hornet pintool system (Wako Automation). Compounds were incubated with respective enzymes for 30–60 min at room temperature protected from light and covered by solid metal lid to prevent evaporation. […] Luciferin was incubated with FLuc enzyme for 5 min before FLuc activity was then measured on a ViewLux CCD imager (PerkinElmer), with exposure times up to ten seconds with medium to high gain settings. Data were normalized to average no enzyme control as 100% enzyme inhibition and average DMSO neutral control. See Supplementary Table 4 for additional details.
Supplementary Table 4. Protocol for Firefly luciferase (FLuc) and NanoLuc (NLuc) enzymatic
Supplementary Table 4: Protocol for Firefly luciferase (FLuc) and NanoLuc (NLuc) enzym atic lum inescence assay
Firefly luciferase (FLuc) enzym atic lum inescence assay
Sequence Param eter Value Description
No enzym e control (colum n 1) and enzym e solution (1- 10 nM FLuc enzym e) in FLuc assay
1 Reagent 4 µLbuffer; white/solid bottom , m edium bind, high base plates (Greiner), dispensed with BioRaptr
com pounds transferred to respective colum ns with Pintool
2b Test Com pounds 23 nLconcentration range) in colum ns 5- 48; com pounds transferred to respective wells with
3 Incubation 30 m in Incubate enzym e + com pounds at am bient tem p for 30 m in, protected from light
4 Reagent 3 µLAdd 3 µL of D-luciferin substrate solution to each well (final concentration 10 µM); dispensed
5 Detector ViewLux Read plate lum inescence (Exposure = 1- 10 sec; Gain = Medium -high; Speed = Slow;
Dispensing solution was diluted in 1X PBS, pH 7.4. […]

Setting [4] is: E. coli Lig-N-HiBiT (0.5 nM), ligand 100 µM.

Sequence of E. coli Lig-N-HiBiT (DNA ligase) (P15042 2-671): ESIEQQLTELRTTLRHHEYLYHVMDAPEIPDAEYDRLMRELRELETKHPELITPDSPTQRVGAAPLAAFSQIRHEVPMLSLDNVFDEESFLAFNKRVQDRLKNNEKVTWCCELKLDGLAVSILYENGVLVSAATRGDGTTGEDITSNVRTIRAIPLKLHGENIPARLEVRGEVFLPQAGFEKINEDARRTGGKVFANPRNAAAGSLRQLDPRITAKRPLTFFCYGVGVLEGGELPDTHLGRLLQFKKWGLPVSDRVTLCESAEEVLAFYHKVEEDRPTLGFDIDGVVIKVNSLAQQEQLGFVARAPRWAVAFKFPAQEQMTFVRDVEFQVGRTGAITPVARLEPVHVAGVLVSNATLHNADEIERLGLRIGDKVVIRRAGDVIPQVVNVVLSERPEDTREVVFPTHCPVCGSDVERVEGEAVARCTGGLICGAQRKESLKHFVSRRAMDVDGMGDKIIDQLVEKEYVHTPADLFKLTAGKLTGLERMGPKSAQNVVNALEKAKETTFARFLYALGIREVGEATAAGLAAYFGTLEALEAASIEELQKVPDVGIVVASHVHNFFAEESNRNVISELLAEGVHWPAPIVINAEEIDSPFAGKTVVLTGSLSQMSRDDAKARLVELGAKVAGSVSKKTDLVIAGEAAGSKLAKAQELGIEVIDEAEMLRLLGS
Sequence of FLuc-N-HiBiT (firefly luciferase) (P08659 2-550 L550V, form open): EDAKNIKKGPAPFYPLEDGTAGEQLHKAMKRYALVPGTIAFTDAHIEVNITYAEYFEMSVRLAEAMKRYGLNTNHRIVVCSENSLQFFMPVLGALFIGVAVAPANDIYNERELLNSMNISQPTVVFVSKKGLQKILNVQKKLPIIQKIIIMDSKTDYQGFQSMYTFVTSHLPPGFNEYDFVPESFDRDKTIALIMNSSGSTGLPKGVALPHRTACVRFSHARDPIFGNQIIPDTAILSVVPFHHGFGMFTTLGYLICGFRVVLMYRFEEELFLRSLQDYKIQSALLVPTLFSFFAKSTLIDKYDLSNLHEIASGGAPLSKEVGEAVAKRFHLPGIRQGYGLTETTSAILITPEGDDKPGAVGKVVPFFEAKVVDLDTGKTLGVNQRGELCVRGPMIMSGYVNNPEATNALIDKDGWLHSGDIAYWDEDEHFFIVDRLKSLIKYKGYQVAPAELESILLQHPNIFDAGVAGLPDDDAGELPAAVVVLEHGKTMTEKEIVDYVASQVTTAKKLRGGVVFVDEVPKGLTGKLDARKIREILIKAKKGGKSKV

Turning to `Nc1ncnc2c1ncn2[C@@H]1O[C@H](COP(=O)(O)OP(=O)(O)OP(=O)(O)O)[C@@H](O)[C@H]1O` [ATP], the SDR assay data in assay [1] (M -2.85) was 49.3 and 51.1 and 44.4; in assay [1] (M -3.15) it was 28.9 and 34.6 and 36.9; in assay [1] (M -3.45), 8.9 and 17.7 and 9.6. Also, the “SDR assay response (in words)” value in assay [1] (E. coli Lig-N-HiBiT) was “weak though reproducible SDR output”. The “SDR assay statistics Ave RLU” value in assay [1] (setting [4]) turned out to be 315.5 RLU. Also, in assay [1] (setting [4]), the “SDR assay statistics S:B” value was found to be 1.1. Further, the “SDR assay statistics S:N” value in assay [1] (setting [4]) is 0.6. In assay [1] (setting [4]), the “SDR assay statistics Z’” value is given as -6.013. The molecule also had a max resp in assay [1] (E. coli Lig-N-HiBiT, maximum response) of 48.3. In addition, the SDR response is 49.3 and 51.1 and 44.4 in assay [1] (M -2.85); 28.9 and 34.6 and 36.9 in assay [1] (M -3.15); 8.9 and 17.7 and 9.6 in assay [1] (M -3.45); 3.6 and 9.8 and 15.1 in assay [1] (M -3.75); 1.5 and 7.7 and 15.7 in assay [1] (M -4.05); 0.051 and 11.3 and 4.7 in assay [1] (M -4.35). Moreover, the SDR response in assay [1] (M -4.65) was 0.8 and 3.9 and 8.7; in assay [1] (M -4.95), -0.949 and 1.5 and 6.8; in assay [1] (M -5.25), -4.0 and 5.1 and 9.7; in assay [1] (M -5.55), -8.9 and 4.7 and 2.7; in assay [1] (M -5.86), -3.0 and -2.8 and 4.9; in assay [1] (M -6.16), -9.9 and -0.326. The SDR response in assay [1] (M -6.46) is -6.9 and 3.7; in assay [1] (M -6.76) it was -8.7 and 1.0 and 4.2.

The term Kd denotes a measure of binding affinity in units of concentration. Take `CC(C)C[C@H](NC(=O)[C@H](Cc1ccc(O)cc1)NC(=O)[C@@H]1CSCC(=O)N[C@H](Cc2ccc(O)cc2)C(=O)N[C@@H](CC(=O)O)C(=O)N[C@@H](Cc2ccc(O)cc2)C(=O)N2CCC[C@H]2C(=O)NCC(=O)N[C@@H](CC(=O)O)C(=O)N[C@@H](Cc2ccc(O)cc2)C(=O)N1)C(=O)N[C@@H](Cc1ccc(O)cc1)C(=O)NCC(=O)N[C@H](C(=O)N[C@@H](CS)C(=O)NCC(N)=O)[C@@H](C)O` [Ce-2]: the Kd in assay [2] was 0.038 nM.

Turning to `O=C(O)c1cccc(-c2noc(-c3ccccc3F)n2)c1` [PTC124, reference compound], the “Functional Enzymatic Assay” value was 7.2 RLU and 7.9 RLU (2×) and 7.3 RLU and 6.7 RLU and 7.1 RLU in assay [3] (M -4.48); 8.6 RLU and 8.1 RLU and 7.7 RLU and 8.3 RLU and 7.1 RLU and 7.2 RLU in assay [3] (M -4.96); 8.3 RLU (2×) and 8.6 RLU and 8.4 RLU and 7.5 RLU (2×) in assay [3] (M -5.44); 8.7 RLU (2×) and 9.2 RLU and 8.9 RLU and 8.3 RLU and 8.5 RLU in assay [3] (M -5.91); 10.6 RLU and 10.5 RLU and 10.2 RLU (2×) and 10.1 RLU and 9.7 RLU in assay [3] (M -6.39); 14.3 RLU (2×) and 14.5 RLU and 14.7 RLU and 15.0 RLU and 14.8 RLU in assay [3] (M -6.87). The “Functional Enzymatic Assay” value in assay [3] (M -7.35) is 29.6 RLU and 29.7 RLU and 30.2 RLU and 33.4 RLU and 41.4 RLU and 37.0 RLU; in assay [3] (M -7.82), 144.5 RLU and 149.3 RLU and 178.2 RLU and 166.0 RLU and 190.3 RLU and 174.6 RLU; in assay [3] (M -8.30), 301.7 RLU and 309.5 RLU and 327.2 RLU and 328.1 RLU and 308.7 RLU and 316.4 RLU; in assay [3] (M -8.78), 370.7 RLU and 364.6 RLU and 370.3 RLU and 363.9 RLU and 364.3 RLU and 365.0 RLU; in assay [3] (M -9.25) it was 391.9 RLU and 389.1 RLU and 396.6 RLU and 382.9 RLU and 381.5 RLU and 379.2 RLU; in assay [3] (M -9.73), 393.8 RLU and 390.8 RLU and 393.2 RLU and 390.0 RLU and 387.4 RLU and 383.0 RLU. In addition, the “Functional Enzymatic Assay” value was 400.1 RLU and 398.5 RLU and 399.0 RLU and 394.9 RLU and 391.0 RLU and 381.4 RLU in assay [3] (M -10.21); 399.5 RLU and 393.3 RLU and 400.5 RLU and 393.7 RLU and 383.2 RLU and 377.0 RLU in assay [3] (M -10.69); 392.3 RLU and 386.5 RLU and 400.5 RLU and 393.0 RLU and 385.0 RLU and 368.5 RLU in assay [3] (M -11.16); 389.5 RLU and 376.4 RLU and 395.8 RLU and 380.1 RLU and 381.7 RLU and 371.3 RLU in assay [3] (M -11.64). Moreover, the “pIC50, FLuc-N-HiBiT (10 nM)” value in assay [3] (10 μM ATP) amounted to 7.68 ± 0.02. Besides, the “10 nM FLuc-N-HiBiT Enz, Mean” value amounted to 7.3 RLU in assay [3] (M (Enz) -4.24); 7.8 RLU in assay [3] (M (Enz) -4.72); 8.1 RLU in assay [3] (M (Enz) -5.19); 8.7 RLU in assay [3] (M (Enz) -5.67); 10.2 RLU in assay [3] (M (Enz) -6.15); 14.6 RLU in assay [3] (M (Enz) -6.63). The “10 nM FLuc-N-HiBiT Enz, Mean” value in assay [3] (M (Enz) -7.10) amounted to 33.5 RLU; in assay [3] (M (Enz) -7.58) it was 167.1 RLU; in assay [3] (M (Enz) -8.06), 315.3 RLU; in assay [3] (M (Enz) -8.53), 366.5 RLU; in assay [3] (M (Enz) -9.01), 386.9 RLU; in assay [3] (M (Enz) -9.49), 389.7 RLU. Moreover, the “10 nM FLuc-N-HiBiT Enz, Mean” value was found to be 394.1 RLU in assay [3] (M (Enz) -9.97), 391.2 RLU in assay [3] (M (Enz) -10.44), 387.6 RLU in assay [3] (M (Enz) -10.92) and 382.5 RLU in assay [3] (M (Enz) -11.40).
